Results on ten compounds are retold here after patent US6277867A, “Pesticide compounds, compositions and process for the preparation thereof” (priority 1995, dated 2001).

Data set [1] has as its system resistant house fly, INSEL strain. Kind of data set: Synergistic activity on resistant house fly, INSEL strain. The class given is in vivo, Musca domestica. As to conditions: active ingredient alone. How it is done: (§1) Investigation of Synergistic Activity on Resistant House Fly (Musca domestica) Populations
(§2) Investigation was carried out as described in biological Example 1. LD50 values and synergist ratios were determined as given in Example 2.

In data set [2] the test system is resistant house fly, IX strain. Kind of data set: Synergistic activity on resistant house fly, IX strain. The class given is in vivo, Musca domestica. As to conditions: active ingredient alone. How it is done:
as §1, §2

The subject of data set [3] is two-spotted spider mite (Tetranychus urticae). Kind of data set: Synergism of acaricidal effect on two-spotted spider mite (leaf-disc dip). The class given is in vivo. The conditions noted are these: alone, 48 hours, read-out: Mortality %. How it is done:
Synergism of Acaricidal Effect Investigated on Two-spotted Spider Mite (Tetranychus urticae)
From the first pair of leaves of a 1 week old bean plant leaf-discs of […] diameter were cut which were treated by dipping them (5 min) into the test solution consisting of the active ingredient and the synergist in definite concentrations. For the preparation of the stock solutions of required concentration, 10% acetone as co-solvent and 0.1% Tween-80 as detergent were applied. The dried leaf-discs were placed on wet surface and they were infected with […]-up female mites per leaf. After 48 hours the mortality was recorded using microscope and a brush. The experiment was performed in 4 replica.

In data set [4] the test system is cotton bollworm (Helicoverpa armigera). Kind of data set: Synergistic activity on cotton bollworm following topical application. The conditions noted are these: in vivo. The protocol: Investigation of Synergistic Activity on Cotton Bollworm (Helicoverpa armigera) Following Topical Application
Treatment was performed similarity as described in Example 1. but L2 stadium grubs of cotton bollworms (Helicoverpa armigera) were treated as test animals. From the 24 hour dose--mortality data the LD50 (ng/grub) values were determined using probit analysis. None of the synergists acted at the applied 1000 ng/grub dose. Synergist ratio was calculated as the quotient of the LD50 values of carbofuran administered alone, and with the synergist. The experiments were performed in 2-4 replica.

Data set [5] has as its system house fly (Musca domestica). Kind of data set: Effect of the active ingredient:synergist ratio on the synergistic activity (flies). How it is done:
Effect of the Active Ingredient:Synergist Ratio on the Synergistic Activity
Treatment was performed as described in Example 1. using Hamilton MicroLab P microdispenser. In two parallel experiments 10 female -3 day old flies were treated on the ventral side of their thorax with 0.2 μl test solution. Beside 1000-400-200-80 ng/fly fixed doses of the synergist they were treated with constant 20 ng/fly CARBOFURAN®. Selection and counting of the flies were performed under the action of CO2. After treatment the flies were kept in plastic cups covered with tulle. After 24 hours mortality % was recorded. Depending on the results the experiments were performed in 2-4 replica.

Data set [6] concerns house fly (Musca domestica). As to conditions: in vivo, topical_or_ocular, 1440 min. The protocol: Investigation of Synergistic Activity on House Fly (Musca domestica) Following Topical Application
In two parallel experiments 10 female. 2-4 day old house flies were treated on the vental side of their thorax with 0.2 μl of the test solution, with the help of Hamilton MicroLab P microdispenser. Beside fixed synergist dose of 1000 ng/fly the animals were treated with carbofuran at a dose of 20 ng/fly. For solvent cellosolve was used. Selection and counting of the flies were performed under the action of CO2. After treatment the flies were kept in plastic cups covered with tulle. Mortality after 24 hours was expressed in %.

For data set [7], the system named is flies. Kind of data set: Comparative investigations with known reference synergists on flies treated with carbofuran. The class given is in vivo. The conditions noted are these: flies treated with carbofuran and 1000 ng of the synergist. The text has this:
These SR50 ratios were compared to those of the new compounds prepared by us.

Setting [8] is: carbofuran 20 ng/fly + synergist 80 ng/fly.
Setting [9] is: carbofuran 20 ng/fly + synergist 200 ng/fly.
Where [10] appears, read: carbofuran 20 ng/fly + synergist 400 ng/fly.
The mark [11] stands for this setting: house fly, in vivo, topical_or_ocular.

Where only a bound is given, the exact number is not on record here.

For `CNC(=O)O/N=C/C(C)(C)SC` [ALDICARB, reference compound], the LD50 in data set [1] worked out at 695 ng/fly; in data set [2], 2104 ng/fly.

For the compound `CNC(=O)Oc1cccc2c1OC(C)(C)O2` [BENDIOCARB, reference compound], the LD50 in data set [1] and in data set [2] was 100000 ng/fly throughout.

What is called mortality is the percentage killed. Regarding `CC(C)OC(=O)C(O)(c1ccc(Br)cc1)c1ccc(Br)cc1` [BROMOROPYLATE], the mortality at 31 ppm in data set [3] (31 ppm) was 18%. Besides, in data set [3] (62 ppm), the mortality at 62 ppm came out at 28%. The mortality at 125 ppm in data set [3] (125 ppm) was determined as 90%.

For the compound `CC#CCOCc1ccc(OC)c(OC)c1` [Compound 493, (2-Butynyloxy-methyl)-3,4-dimethoxy-benzene], in data set [4], the Synergist ratio is on record as greater than 5. The “24 hour mortality (%)” value in data set [5] (setting [8]) worked out at 75%; in data set [5] (setting [9]), 88%; in data set [5] (setting [10]), 94%; in data set [5] (setting [11]) it was 100%. For the same compound, in data set [6], the mortality % came out at 100%. Moreover, the “Synergist ratio SR50” value in data set [7] worked out at 32.84.

In the case of `CC#CCOC(=O)c1ccc2c(c1)OCO2` [Compound 502, 2-Butynyl 1,3-benzodioxol-5-carboxylate], in data set [4], the Synergist ratio is on record as greater than 5. Besides, the mortality % in data set [6] turned out to be 47%. The “Synergist ratio SR50” value in data set [7] turned out to be 6.28.

Turning to `CC#CCOCc1c(Cl)cccc1Cl` [Compound 503, 2,6-Dichloro-1-(2-butynyloxy-methyl)-benzene], the Synergist ratio in data set [4] was greater than 5. The “24 hour mortality (%)” value was found to be 37% in data set [5] (setting [8]), 50% in data set [5] (setting [9]), 65% in data set [5] (setting [10]) and 93% in data set [5] (setting [11]). For the same compound, the mortality % in data set [6] is reported as 95%. Moreover, the “Synergist ratio SR50” value in data set [7] is reported as 21.16.

As for `CC#CCOCC1COc2ccccc2O1` (stereo not shown) [Compound 510, 2-[(2-Butynyloxy)-methyl]-1,4-benzodioxane], the Synergist ratio in data set [4] is reported as greater than 5. In addition, the mortality % in data set [6] is 75%. The “Synergist ratio SR50” value in data set [7] is 18.32.

For `CC#CCON=C(C)c1cccc2ccccc12` [Compound 571, 1-Aceto-naphthon-oxim-(2-butynyl)-ether], in data set [4], the Synergist ratio was greater than 5. Moreover, the mortality % in data set [6] turned out to be 53%. For the same compound, in data set [7], the “Synergist ratio SR50” value worked out at 10.02.

On to `CNC(=O)Oc1ccccc1C(C)C` [ISOPROCARB, reference compound], for which the LD50 in data set [1] and in data set [2] was greater than 100000 ng/fly each time.

`CNC(=O)ON=C(C)SC` [METHOMYL, reference compound]: the LD50 in data set [1] worked out at 475 ng/fly; in data set [2] it was 851 ng/fly.
